In experiment [1] the test system is promastigotes of L. mexicana. Nature of the experiment: Promastigote assay (L. mexicana, flow cytometry with propidium iodide). Type of experiment: cell-based, Leishmania mexicana. To be noted: for antileishmanial activity against promastigotes (in words): 48 h exposure; for pIC50: Leishmania mexicana, 48 h, linear regression from 1, 10, 50 and 100 μg/mL. Here is the method: Leishmania mexicana (MNYC/BZ/62/M379) was maintained by serial passage of amastigotes inoculated subcutaneously into the shaven rumps of 129SvE mice and was obtained by in vitro culture of amastigotes in RPMI-1640 supplemented with 10% fetal calf serum (FCS, Sigma-Aldrich Corporation, St. Louis, Mo.) and incubated at 28° C. All work including experimental animals was approved by the Institutional Animal Care and Use Committee (IACUC) of The Ohio State University.
One million log phase promastigotes of L. mexicana were seeded in 1 mL of complete RPMI-1640 medium, and parasite numbers, and their mobility and morphology were measured from 24 and 48 h. This was performed by flow cytometry measurements using experimental and control groups of parasites stained with propidium iodide and with Quillaja saponaria saponin as positive control, as reported in the literature. The test compounds isolated from P. andrieuxii were compared with a positive control: sodium stibogluconate, a pentavalent antimonial drug.
A general note: In flow cytometry, cells or beads pass a laser one at a time.

The subject of experiment [2] is L. mexicana amastigotes in bone marrow-derived macrophages. Kind of experiment: Amastigote assay in infected bone marrow-derived macrophages. The experiment is classed as cell-based, Leishmania mexicana. The following applies: for pIC50: Leishmania mexicana, BMDM, in Mus musculus, 48 h, read-out: Amastigote IC50, 48 hours, infected BMDM from C57BL/6 mice; for antileishmanial activity against the amastigote stage (in words): 48 h treatment. The text has this: Bone marrow derived macrophages were obtained from C57BL/6 mice. Bone marrow-derived macrophages (BMDM) (0.5×10^6) were adhered on top of glass rounded coverslips deposited at the bottom of individual plate's well (24 well tissue culture plate, Corning, Inc.). Next, macrophages were infected overnight with 2.5×10^6 stationary phase promastigotes of the L. mexicana (ratio 5:1). After this period, cells were extensively washed with Hank's balanced salt solution (HBSS) to eliminate non-phagocytosed parasites, and, after treatment with test compounds for 48 hours, cells were stained with Giemsa stain (Sigma). In each experiment, infection rates were recorded by counting the number of parasites in 100 macrophages on each slide in triplicate in a blinded fashion.

For experiment [3], the system named is intracellular parasites (L. mexicana amastigotes). Nature of the experiment: Electron microscopy of treated intracellular parasites. Type of experiment: cell-based, Leishmania mexicana. To be noted: 100 μM, 2 h. How it is done:
Intracellular parasites were co-cultured, as previously described herein, by treating a 100 μM concentration of each pure compound for 2 h and suspending them in glutaraldehyde. Samples were further processed in an electron microscopy unit as follows: Incubation steps were carried out on a Lab-Line orbital shaker operating at 700 rpm (Barnstead/Thermolyne, Melrose Park, Ill.). After the initial fixation in 3% buffered glutaraldehyde, cell pellets were washed twice with sodium cacodylate buffer (pH 7.4, 10 minutes each) and spun down after each wash at 1500 rpm for 5 min. Cell samples were then post-fixed in 1% osmium tetroxide in sym-collidine buffer (pH 7.6) for 1 h at room temperature. Following two washes with sym-collidine buffer (10 min each) the cell pellet was stained with a saturated aqueous uranyl acetate solution (pH 3.3) for 1 h. Cell pellets were dehydrated in a graded EtOH series up to absolute (10 min each). Acetone was used as the transitional solvent, two changes for 10 min each. The cell suspensions were infiltrated overnight with a 1:1 mixture of acetone and Spurr's epoxy resin (Electron Microscopy Sciences, Fort Washington, Pa.). Finally, cell pellets were placed into BEEM™ embedding capsules containing 100% Spurr's resin. Polymerization of epoxy blocks was carried out at 70° C. overnight. Polymerized blocks were sectioned with a Leica Ultraut UCT ultramicrotome (Leica Microsystem GmbH, Wein, Austria). Methylene Blue-Basic Fuschin stained semi-thin (750 nm) sections were evaluated and two representative areas were thin-sectioned for ultrastructural examination. Ultrathin (80 nm) sections were collected on 200 mesh copper grids (Electron Microscopy Sciences) and post-stained with lead citrate (3 min).

The test system of experiment [4] is Leishmania donovani (Strain LV9). Nature of the experiment: In vivo activity of liposomal preparation of compound 1, parasite loads in liver and spleen. To be noted: 46.1 μg compound 1, tail vein, one week after treatment. Also noted: species or system BALB/c mice. How it is done:
Liposomes were made by rehydration of a lipid cake. First, hydrogenated soy phosphatidylcholine (Avanti Polar Lipids, Inc., Alabaster, Ala.), cholesterol (Avanti Polar Lipids), 1,2-distearoyl-sn-glycero-3-[phospho-rac-(1-glycerol)] (“DSPG”; Avanti Polar Lipids,), and α-tocopherol (Sigma-Aldrich Corporation, St. Louis, Mo.) were dissolved in a chloroform and methanol (9:1, v/v). Compound 1 was dissolved in the lipid solution at a weight ratio of compound 1 to lipid of 1:9 (i.e. for clarity, the solution comprised 10% by weight of compound 1 and 90% by weight of the lipid solution). The solution was placed on at rotary evaporator for about 30 minutes and the liquid was completely evaporated. The lipids were reconstituted into liposomes in deionized water (3 mL) for 30 minutes in a 60° C. water bath, followed by 3 freeze-thaw cycles. […] Loading of liposomes was verified and quantified by HPLC. […]
One week after the treatment, the mice were euthanized and parasite loads in the liver and spleen were determined. Parasite loads in the spleen and liver were quantified as previously described (Murray, H. W. 2000. Infect Immun. 68: 6294-6299). Briefly, the liver and spleen impression smears were stained using Giemsa and parasite loads we quantified microscopically. LDU is determined by the number of amastigotes per 1000 nuclei multiplied by the weight (gm) of the liver or spleen. […]

Experiment [5] has as its system splenocytes stimulated with L. donovani antigen. Kind of experiment: Splenocyte T cell proliferation (Alamar blue) and cytokine ELISA after L. donovani antigen stimulation. The experiment is classed as in vivo, BALB/c mice. To be noted: liposomal preparation. How it is done: One week after the treatment, the mice were euthanized and parasite loads in the liver and spleen were determined. Parasite loads in the spleen and liver were quantified as previously described (Murray, H. W. 2000. Infect Immun. 68: 6294-6299). Briefly, the liver and spleen impression smears were stained using Giemsa and parasite loads we quantified microscopically. LDU is determined by the number of amastigotes per 1000 nuclei multiplied by the weight (gm) of the liver or spleen. At this time, spleen cell suspensions were prepared and these cells were stimulated in vitro with 20 microgram/ml of Leishmania donovani antigen for 48-72 hrs to stimulate lymphocyte release. Proliferation of spleen cells were determined by Alamar blue assays and levels of cytokines including IFN-gamma in supernatant were quantified by ELISA using commercially available reagents from Biolegend and BD Biosciences.
T cell proliferation was determined as previously described (Rosas, L. E., et al., 2006. Am. J. Pathol. 168: 158-169.). Briefly, 5×10^5 cells were added in quadruplicate to the wells of sterile 96-well, flat-bottom tissue culture plates and stimulated with freeze-thawed L. donovani Ag (20 μg/ml). The proliferation responses were measured by Alamar blue assay (Ansar-Ahmed, A., et al., 1994. J. Immunol. Methods 170: 211-214.). Supernatants were collected after 72 hours of incubation at 37° C. and analyzed for the production of IFN-γ and IL-10 by standard ELISA methods (BD Pharmingen, Inc., San Diego, Calif.).
Background: Resazurin is reduced to fluorescent resorufin, in cell work by metabolically active cells.

The mark [6] stands for this setting: 48 hours in culture, read-out: Promastigote IC50.

pIC50: −log10 of the molar value. Entries after “also recorded” stand apart in the source; their conditions may differ. Like-named read-outs stand apart in the source and are kept apart here.

The text below walks through data of patent publication US10174072B2, “Antileishmanial compositions and methods of use” (Ohio State Innovation Foundation, priority 2011, dated 2019).

With `C=C(CC[C@@H](C)[C@H]1CC[C@H]2[C@@H]3CCC4=CC(=O)CC[C@]4(C)[C@H]3CC[C@]12C)C(C)C` [Compound 3, 24-methylcholesta-4,24(28)-dien-3-one], the “antileishmanial activity against promastigotes (in words)” value in experiment [1] is reported as “significant leishmanicidal activity; also recorded: inhibitory effects”. In addition, the negative-log IC50 (pIC50) in experiment [1] (setting [6]) is 4.62; in experiment [2] it was 5.46. For the same compound, the “electron microscopy findings in intracellular parasites” value (“electron microscopy findings” for short) in experiment [3] is “morphological abnormalities and destruction of the amastigotes”.
With `CC(=O)C1=CC[C@H]2[C@@H]3C=CC4=CC(=O)CC[C@]4(C)[C@H]3C[C@@H](O)[C@]12C` [Compound 16, neridienone], in experiment [1], the “antileishmanial activity against promastigotes (in words)” value is on record as “significant leishmanicidal activity; also recorded: inhibitory effects”. For the same compound, the negative-log IC50 (pIC50) in experiment [1] (read-out: Promastigote IC50, 48 hours in culture) is 5.04. Further, in experiment [3], the “electron microscopy findings” value is “morphological abnormalities and destruction of the amastigotes”.
In the case of `CC[C@H](CC[C@@H](C)[C@H]1CC[C@H]2[C@@H]3CCC4=CC(=O)CC[C@]4(C)[C@H]3CC[C@]12C)C(C)C` [Compound 6, stigmast-4-en-3-one], the “antileishmanial activity against promastigotes (in words)” value in experiment [1] is “inactive”. Besides, in experiment [2], the “antileishmanial activity against the amastigote stage (in words)” value was “inactive”.
With `C=C(CCC=C(C)C)[C@H]1CC[C@H]2[C@@H]3CCC4=CC(=O)CC[C@]4(C)[C@H]3CCC12C` (stereo in doubt) [Compound 1, (8S,9S,10R,13R,14S,17R)-cholest-4,20,24-trien-3-one], in experiment [1], the “activity relative to cholest-4-en-3-one (4), promastigote bioassay” value is reported as “almost three times more active” and the “antileishmanial activity against promastigotes (in words)” value is given as “significant leishmanicidal activity; also recorded: inhibitory effects”. Besides, the pIC50 in experiment [1] (setting [6]) is 4.52. The pIC50 in experiment [2] is 5.48. For the same compound, the “electron microscopy findings” value in experiment [3] was “morphological abnormalities and destruction of the amastigotes”. Also, in experiment [4], the “parasite load in hepatic cells” value is recorded as “decreased parasite load” and the “parasite load in splenic cells” value is listed as “decreased parasite load”. Further, the “levels of IL-10 secreted from splenocytes” value in experiment [5] (Leishmanial antigen stimulation) is on record as “no significant change”. The “secretion of IFN-γ from splenocytes” value in experiment [5] (Leishmanial antigen stimulation, P value<0.01) was “significant increase”. Moreover, the “T cell proliferation of splenocytes upon Leishmanial antigen stimulation” value in experiment [5] (vs group without compound 1, P value<0.0001) is “significant increase”.
On to `CC(=O)C1=CC[C@H]2[C@@H]3CCC4=CC(=O)CC[C@]4(C)[C@H]3C[C@@H](O)[C@]12C` [Compound 15, 6,7-dihydroneridienone], for which the “antileishmanial activity against promastigotes (in words)” value in experiment [1] is given as “potent; also recorded: inhibitory effects”. The “electron microscopy findings” value in experiment [3] is “morphological abnormalities and destruction of the amastigotes”.
Turning to `CC(C)CCC[C@@H](C)[C@H]1CC[C@H]2[C@@H]3CCC4=CC(=O)CC[C@]4(C)[C@H]3CC[C@]12C` [Compound 4, cholest-4-en-3-one], the “antileishmanial activity against promastigotes (in words)” value in experiment [1] is reported as “inhibitory effects”. Also, the negative-log IC50 (pIC50) was 4.09 in experiment [1] (setting [6]) and 7.52 in experiment [2]. Further, the “potency relative to pentostam, amastigote stage” value in experiment [2] (ratio of IC50 values) is on record as approximately 100 times. Moreover, in experiment [3], the “electron microscopy findings” value was “morphological abnormalities and destruction of the amastigotes”.
Take `CC[C@H](/C=C/[C@@H](C)[C@H]1CC[C@H]2[C@@H]3CCC4=CC(=O)CC[C@]4(C)[C@H]3CC[C@]12C)C(C)C` [Compound 5, stigmast-4,22-dien-3-one]: the “antileishmanial activity against promastigotes (in words)” value in experiment [1] is “inactive”. The “antileishmanial activity against the amastigote stage (in words)” value in experiment [2] was “inactive”.
For `C=C(CCC=C(C)C)[C@H]1CC[C@H]2[C@@H]3CC=C4C[C@@H](O)CC[C@]4(C)[C@H]3CC[C@]12C` [Compound 7, cholest-5,20,24-trien-3β-ol], in experiment [1], the “antileishmanial activity against promastigotes (in words)” value is “inactive”. Also, the negative logarithm of the IC50 (pIC50) in experiment [1] (setting [6]) is less than 3.58. For the same compound, in experiment [2], the “antileishmanial activity against the amastigote stage (in words)” value was “significant activity; also recorded: active” and the pIC50 is 4.84.

As a reminder, the pIC50 is the negative decadic logarithm of the IC50, by convention in mol/L.
